Legend:
[1] = test system: Phosphatidylinositol 4,5-bisphosphate 3-kinase catalytic subunit alpha isoform (Homo sapiens), P42336 [Q546K]; test: Inhibition of human partial length PIK3CA Q546K mutant (R108 to N1068 residues) expressed in mammalian expression system assessed as residual activity at 50 nM by Kinomescan method relative to control
[2] = target: MAP kinase-activated protein kinase 5 (Homo sapiens) (UniProt Q8IW41); test: Inhibition of wild-type human partial length MAPKAPK5 (M1 to D322 residues) expressed in mammalian expression system assessed as residual activity at 50 nM by Kinomescan method relative to control
Chain of MAP kinase-activated protein kinase 5 (Homo sapiens) (Q8IW41 whole entry, the tested form may be a part): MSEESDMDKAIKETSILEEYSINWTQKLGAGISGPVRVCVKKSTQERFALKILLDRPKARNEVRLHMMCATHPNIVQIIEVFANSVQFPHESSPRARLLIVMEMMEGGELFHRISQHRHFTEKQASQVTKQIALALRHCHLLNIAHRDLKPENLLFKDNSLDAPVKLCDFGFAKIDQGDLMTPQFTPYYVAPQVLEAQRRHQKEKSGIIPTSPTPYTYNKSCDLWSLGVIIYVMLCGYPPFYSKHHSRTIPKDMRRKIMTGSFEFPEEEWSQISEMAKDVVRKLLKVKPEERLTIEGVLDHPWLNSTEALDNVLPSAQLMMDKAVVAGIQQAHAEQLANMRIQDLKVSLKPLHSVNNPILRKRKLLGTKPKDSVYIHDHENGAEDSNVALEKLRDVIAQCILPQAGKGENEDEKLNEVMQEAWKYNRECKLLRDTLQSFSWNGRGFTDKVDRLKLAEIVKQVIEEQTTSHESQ

[3] = target: Serine/threonine-protein kinase 38-like (Homo sapiens) (UniProt Q9Y2H1); test: Inhibition of wild-type human partial length NDR2 (N34 to E447 residues) expressed in bacterial expression system assessed as residual activity at 50 nM by Kinomescan method relative to control
[4] = target: Leukocyte tyrosine kinase receptor (Homo sapiens) (UniProt P29376); test: Inhibition of wild-type human partial length LTK (P422 to S744 residues) expressed in bacterial expression system assessed as residual activity at 50 nM by Kinomescan method relative to control
[5] = target: Non-receptor tyrosine-protein kinase TYK2 (Homo sapiens, UniProt P29597); test: Inhibition of His-tagged TYK2 (unknown origin) after 3 hrs by Caliper assay
[6] = target: Death-associated protein kinase 3 (Homo sapiens) (UniProt O43293); test: Inhibition of wild-type human partial length DAPK3 (M1 to A277 residues) expressed in bacterial expression system assessed as residual activity at 50 nM by Kinomescan method relative to control
[7] = target: Activin receptor type-1B (Homo sapiens) (UniProt P36896); test: Inhibition of wild-type human ALK4 (S187 to I505 residues) expressed in bacterial expression system assessed as residual activity at 50 nM by Kinomescan method relative to control
[8] = target: Serine/threonine-protein kinase Nek11 (Homo sapiens) (UniProt Q8NG66); test: Inhibition of wild-type human partial length NEK11 (M1 to E313 residues) expressed in mammalian expression system assessed as residual activity at 50 nM by Kinomescan method relative to control
[9] = target: Phosphatidylinositol 4-phosphate 5-kinase type-1 gamma (Homo sapiens) (UniProt O60331); test: Inhibition of wild-type human partial length PIP5K1C (M1 to T668 residues) expressed in mammalian expression system assessed as residual activity at 50 nM by Kinomescan method relative to control
[10] = target: Serine/threonine-protein kinase NLK (Homo sapiens) (UniProt Q9UBE8); test: Inhibition of wild-type human full length NLK (M13 to E527 residues) expressed in bacterial expression system assessed as residual activity at 50 nM by Kinomescan method relative to control
[11] = target: Ribosomal protein S6 kinase alpha-1 (Homo sapiens) (UniProt Q15418); test: Inhibition of wild-type human partial length C-terminal RSK1 […] (P360 to L681 residues) expressed in bacterial expression system assessed as residual activity at 50 nM by Kinomescan method relative to control
Chain of Ribosomal protein S6 kinase alpha-1 (Homo sapiens) (Q15418 whole entry, the tested form may be a part, canonical isoform): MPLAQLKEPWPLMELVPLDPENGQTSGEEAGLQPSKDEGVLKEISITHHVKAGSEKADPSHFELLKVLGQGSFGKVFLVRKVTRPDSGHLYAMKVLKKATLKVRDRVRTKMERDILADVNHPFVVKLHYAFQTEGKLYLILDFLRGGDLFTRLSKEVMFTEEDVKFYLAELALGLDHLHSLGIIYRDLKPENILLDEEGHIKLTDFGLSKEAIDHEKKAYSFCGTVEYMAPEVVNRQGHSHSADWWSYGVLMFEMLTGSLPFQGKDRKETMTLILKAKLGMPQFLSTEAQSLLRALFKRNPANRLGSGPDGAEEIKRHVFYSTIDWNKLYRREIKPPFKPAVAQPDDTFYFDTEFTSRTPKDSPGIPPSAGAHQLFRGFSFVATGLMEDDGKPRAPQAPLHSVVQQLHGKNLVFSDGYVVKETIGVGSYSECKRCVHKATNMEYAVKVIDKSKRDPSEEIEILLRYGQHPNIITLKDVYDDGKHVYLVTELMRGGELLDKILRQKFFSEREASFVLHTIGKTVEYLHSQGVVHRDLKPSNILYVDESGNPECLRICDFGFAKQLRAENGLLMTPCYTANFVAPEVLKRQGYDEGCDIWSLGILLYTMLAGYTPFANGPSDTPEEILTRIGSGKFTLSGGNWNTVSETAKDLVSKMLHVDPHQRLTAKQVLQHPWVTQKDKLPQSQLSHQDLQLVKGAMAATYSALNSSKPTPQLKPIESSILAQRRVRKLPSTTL

[12] = target: Phosphatidylinositol 4,5-bisphosphate 3-kinase catalytic subunit gamma isoform (Homo sapiens) (UniProt P48736); test: Inhibition of wild-type human partial length PI3KCG (S144 to A1102 residues) expressed in mammalian expression system assessed as residual activity at 50 nM by Kinomescan method relative to control
Chain of Phosphatidylinositol 4,5-bisphosphate 3-kinase catalytic subunit gamma isoform (Homo sapiens) (P48736 whole entry, looked up, the tested form may be a part, canonical isoform): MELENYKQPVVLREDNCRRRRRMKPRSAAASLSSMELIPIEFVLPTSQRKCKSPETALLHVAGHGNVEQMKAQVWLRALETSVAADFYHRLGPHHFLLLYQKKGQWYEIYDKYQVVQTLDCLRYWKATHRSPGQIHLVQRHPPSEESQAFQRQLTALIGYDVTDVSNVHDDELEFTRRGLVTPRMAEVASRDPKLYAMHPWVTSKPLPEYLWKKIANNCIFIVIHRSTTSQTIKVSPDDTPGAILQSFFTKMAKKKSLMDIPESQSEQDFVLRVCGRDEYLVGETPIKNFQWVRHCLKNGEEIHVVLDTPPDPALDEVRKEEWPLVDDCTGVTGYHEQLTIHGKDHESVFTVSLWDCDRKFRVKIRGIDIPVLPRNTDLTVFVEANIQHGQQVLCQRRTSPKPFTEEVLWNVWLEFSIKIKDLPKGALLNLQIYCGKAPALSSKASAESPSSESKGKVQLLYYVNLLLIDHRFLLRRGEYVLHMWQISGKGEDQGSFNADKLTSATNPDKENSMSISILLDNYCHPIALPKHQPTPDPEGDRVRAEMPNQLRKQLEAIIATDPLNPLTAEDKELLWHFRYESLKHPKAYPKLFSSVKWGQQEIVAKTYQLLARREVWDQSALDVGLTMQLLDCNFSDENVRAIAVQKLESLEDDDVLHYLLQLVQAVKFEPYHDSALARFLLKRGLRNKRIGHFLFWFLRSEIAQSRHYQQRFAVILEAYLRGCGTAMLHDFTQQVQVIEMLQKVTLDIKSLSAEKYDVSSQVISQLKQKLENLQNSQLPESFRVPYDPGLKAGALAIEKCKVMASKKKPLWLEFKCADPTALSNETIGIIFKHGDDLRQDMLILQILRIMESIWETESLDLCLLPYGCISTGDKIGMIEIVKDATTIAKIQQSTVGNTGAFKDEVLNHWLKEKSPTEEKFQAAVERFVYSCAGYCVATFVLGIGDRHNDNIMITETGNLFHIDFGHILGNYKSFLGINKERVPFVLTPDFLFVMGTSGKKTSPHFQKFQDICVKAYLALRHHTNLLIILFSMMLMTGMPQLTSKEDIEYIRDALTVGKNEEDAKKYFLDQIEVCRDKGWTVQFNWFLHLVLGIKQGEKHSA

[13] = target: cGMP-dependent protein kinase 2 (Homo sapiens) (UniProt Q13237); test: Inhibition of wild-type human partial length PKG2 (S422 to F762 residues) expressed in mammalian expression system assessed as residual activity at 50 nM by Kinomescan method relative to control
[14] = target: Phosphatidylinositol 5-phosphate 4-kinase type-2 beta (Homo sapiens) (UniProt P78356); test: Inhibition of wild-type human full length PIP5K2B (M1 to T416 residues) expressed in bacterial expression system assessed as residual activity at 50 nM by Kinomescan method relative to control
[15] = target: Dual serine/threonine and tyrosine protein kinase (Homo sapiens) (UniProt Q6XUX3); test: Inhibition of wild-type human full length RIPK5 (M1 to T929 residues) expressed in mammalian expression system assessed as residual activity at 50 nM by Kinomescan method relative to control
[16] = target: Fibroblast growth factor receptor 3 (Homo sapiens) (UniProt P22607); test: Inhibition of wild-type human partial length FGFR3 (R442 to S771 residues) expressed in bacterial expression system assessed as residual activity at 50 nM by Kinomescan method relative to control
Chain of Fibroblast growth factor receptor 3 (Homo sapiens) (P22607 23-806 limits assumed): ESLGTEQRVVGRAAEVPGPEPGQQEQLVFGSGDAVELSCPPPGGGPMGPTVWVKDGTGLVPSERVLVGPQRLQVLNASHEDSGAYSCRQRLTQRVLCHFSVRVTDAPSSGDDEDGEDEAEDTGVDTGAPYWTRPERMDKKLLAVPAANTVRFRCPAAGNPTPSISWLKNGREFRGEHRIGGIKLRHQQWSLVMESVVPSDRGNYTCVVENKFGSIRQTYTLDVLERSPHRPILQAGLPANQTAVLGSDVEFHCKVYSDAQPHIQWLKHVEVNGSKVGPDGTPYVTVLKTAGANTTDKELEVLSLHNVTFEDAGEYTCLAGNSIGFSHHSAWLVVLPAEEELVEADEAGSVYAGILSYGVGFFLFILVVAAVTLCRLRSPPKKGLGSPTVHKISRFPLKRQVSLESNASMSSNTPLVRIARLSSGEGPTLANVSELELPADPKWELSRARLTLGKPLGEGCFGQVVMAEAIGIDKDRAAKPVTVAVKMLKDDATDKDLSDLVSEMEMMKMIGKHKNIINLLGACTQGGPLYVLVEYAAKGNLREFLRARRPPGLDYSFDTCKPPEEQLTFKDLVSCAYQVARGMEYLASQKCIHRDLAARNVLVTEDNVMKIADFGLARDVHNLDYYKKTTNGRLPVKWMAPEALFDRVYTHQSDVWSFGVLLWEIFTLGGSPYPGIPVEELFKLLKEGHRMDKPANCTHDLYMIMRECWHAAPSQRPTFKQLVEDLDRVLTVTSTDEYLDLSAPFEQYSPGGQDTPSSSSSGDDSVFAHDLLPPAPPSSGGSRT

[17] = target: Proto-oncogene tyrosine-protein kinase receptor Ret (Homo sapiens) (UniProt P07949); test: Inhibition of wild-type human partial length RET (E713 to D1014 residues) expressed in bacterial expression system assessed as residual activity at 50 nM by Kinomescan method relative to control
[18] = target: Serine/threonine-protein kinase PLK1 (Homo sapiens) (UniProt P53350); test: Inhibition of wild-type human partial length PLK1 (A33 to F325 residues) expressed in mammalian expression system assessed as residual activity at 50 nM by Kinomescan method relative to control
[19] = target: Dual specificity mitogen-activated protein kinase kinase 4 (Homo sapiens) (UniProt P45985); test: Inhibition of wild-type human partial length MAP2K4 (S84 to D399 residues) expressed in mammalian expression system assessed as residual activity at 50 nM by Kinomescan method relative to control
[20] = target: Homeodomain-interacting protein kinase 1 (Homo sapiens) (UniProt Q86Z02); test: Inhibition of wild-type human partial length HIPK1 (M146 to I555 residues) expressed in mammalian expression system assessed as residual activity at 50 nM by Kinomescan method relative to control
[21] = target: Serine/threonine-protein kinase Chk1 (Homo sapiens) (UniProt O14757); test: Inhibition of wild-type human partial length CHK1 (M1 to G289 residues) expressed in bacterial expression system assessed as residual activity at 50 nM by Kinomescan method relative to control
Chain of Serine/threonine-protein kinase Chk1 (Homo sapiens) (O14757 whole entry, the tested form may be a part): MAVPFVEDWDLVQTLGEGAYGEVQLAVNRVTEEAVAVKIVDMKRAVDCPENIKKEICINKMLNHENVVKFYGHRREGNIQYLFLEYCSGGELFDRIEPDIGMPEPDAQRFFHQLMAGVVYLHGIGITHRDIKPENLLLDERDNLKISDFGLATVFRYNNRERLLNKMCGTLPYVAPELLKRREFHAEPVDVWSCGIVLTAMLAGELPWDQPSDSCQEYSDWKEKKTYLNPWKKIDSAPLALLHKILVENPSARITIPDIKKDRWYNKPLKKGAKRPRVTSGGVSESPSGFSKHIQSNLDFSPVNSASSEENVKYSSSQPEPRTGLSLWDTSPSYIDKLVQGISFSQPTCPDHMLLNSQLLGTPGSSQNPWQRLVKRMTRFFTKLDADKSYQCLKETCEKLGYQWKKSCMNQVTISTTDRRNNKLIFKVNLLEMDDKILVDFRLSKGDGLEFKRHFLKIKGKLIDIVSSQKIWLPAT

[22] = target: Protein-tyrosine kinase 2-beta (Homo sapiens) (UniProt Q14289); test: Inhibition of wild-type human full length PYK2 (M1 to E967 residues) expressed in bacterial expression system assessed as residual activity at 50 nM by Kinomescan method relative to control
Chain of Protein-tyrosine kinase 2-beta (Homo sapiens) (Q14289 whole entry, looked up, the tested form may be a part): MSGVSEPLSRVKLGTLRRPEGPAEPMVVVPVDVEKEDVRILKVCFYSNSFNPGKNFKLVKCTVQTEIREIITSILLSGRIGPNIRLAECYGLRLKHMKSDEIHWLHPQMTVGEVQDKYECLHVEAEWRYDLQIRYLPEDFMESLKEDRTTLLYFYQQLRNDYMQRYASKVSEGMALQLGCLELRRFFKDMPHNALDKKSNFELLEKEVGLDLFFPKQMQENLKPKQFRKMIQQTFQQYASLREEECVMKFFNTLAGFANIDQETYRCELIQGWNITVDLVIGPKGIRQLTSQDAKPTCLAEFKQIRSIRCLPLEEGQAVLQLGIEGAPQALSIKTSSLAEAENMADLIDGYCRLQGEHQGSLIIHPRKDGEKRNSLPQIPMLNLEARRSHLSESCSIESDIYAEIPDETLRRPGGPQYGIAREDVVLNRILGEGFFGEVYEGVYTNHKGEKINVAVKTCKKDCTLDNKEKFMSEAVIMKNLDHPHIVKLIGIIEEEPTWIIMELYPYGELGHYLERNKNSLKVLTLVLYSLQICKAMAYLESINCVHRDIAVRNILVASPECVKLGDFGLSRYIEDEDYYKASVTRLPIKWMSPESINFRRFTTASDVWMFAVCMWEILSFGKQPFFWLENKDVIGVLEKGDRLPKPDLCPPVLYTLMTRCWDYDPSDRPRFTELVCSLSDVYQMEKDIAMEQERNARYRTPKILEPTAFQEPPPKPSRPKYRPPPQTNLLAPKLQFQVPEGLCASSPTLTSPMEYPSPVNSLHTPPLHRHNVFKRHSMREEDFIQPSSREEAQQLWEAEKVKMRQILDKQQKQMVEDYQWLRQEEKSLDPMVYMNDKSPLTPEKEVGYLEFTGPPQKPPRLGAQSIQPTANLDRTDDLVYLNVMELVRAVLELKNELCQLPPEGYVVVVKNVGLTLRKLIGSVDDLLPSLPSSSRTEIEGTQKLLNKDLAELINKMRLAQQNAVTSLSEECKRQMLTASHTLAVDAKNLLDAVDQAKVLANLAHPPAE

[23] = target: Mitogen-activated protein kinase kinase kinase 20 (Homo sapiens) (UniProt Q9NYL2); test: Inhibition of wild-type human partial length ZAK (M1 to L331 residues) expressed in bacterial expression system assessed as residual activity at 50 nM by Kinomescan method relative to control
[24] = target: Serine/threonine-protein kinase pim-3 (Homo sapiens) (UniProt Q86V86); test: Inhibition of wild-type human partial length PIM3 (G16 to A317 residues) expressed in bacterial expression system assessed as residual activity at 50 nM by Kinomescan method relative to control
[25] = target: Serine/threonine-protein kinase BRSK1 (Homo sapiens) (UniProt Q8TDC3); test: Inhibition of wild-type human partial length BRSK1 (M1 to E754 residues) expressed in bacterial expression system assessed as residual activity at 50 nM by Kinomescan method relative to control

Row | Structure (SMILES) | Activity [1] | Activity [2] | Activity [3] | Activity [4] | IC50 [5] | Activity [6] | Activity [7] | Activity [8] | Activity [9] | Activity [10] | Activity [11] | Activity [12] | Activity [13] | Activity [14] | Activity [15] | Activity [16] | Activity [17] | Activity [18] | Activity [19] | Activity [20] | also measured
1 | COc1ccc(-c2cc3c(N[C@@H]4CC[C@](C)(N)C4(C)C)c(C(N)=O)cnn3c2)cn1 | 100% | 100% | 100% | 100% | 25 nM | 97% | 66% | 99% | 77% | 71% | 100% | 100% | 100% | 72% | 74% | 82% | 92% | 100% | 100% | 100% | Activity [21]: 85%; Activity [22]: 93%; Activity [23]: 91%; Activity [24]: 72%; Activity [25]: 100%
2 | CC1(C)[C@H](Nc2c(C(N)=O)cnn3cc(-c4ccccc4)cc23)CC[C@]1(C)N | 84% | 100% | 100% | 100% | 7.5 nM | 90% | 82% | 87% | 68% | 100% | 81% | 100% | 87% | 47% | 92% | 100% | 100% | 94% | 100% | 100% | Activity [21]: 98%; Activity [22]: 100%; Activity [23]: 96%; Activity [24]: 92%; Activity [25]: 75%
